Test results: patent US20160213742A1, “COMPOSITIONS AND METHODS FOR THE TREATMENT OF FUNGAL INFECTIONS” (priority 2013, published 2016)
Converted amounts (≈) assume the structure as drawn.

How the values were obtained:
Type in all cases: cell-based
[1] = tested on: C. glabrata ATCC 90030; experiment: microbe, parasite or virus in culture
Protocol: (§1) The test organisms consisted of strains from the Micromyx collection. Reference isolates were originally received from the American Type Culture Collection (ATCC; Manassas, Va.). Organisms received at Micromyx were initially streaked for isolation on Sabouraud dextrose or potato dextrose agar. Colonies were picked by swab from the medium and resuspended in the appropriate broth containing cryoprotectant. The suspensions were aliquoted into cryogenic vials and maintained at −80° C. Prior to testing, Candida isolates were streaked from the frozen vials on Sabouraud dextrose agar. The yeast isolates were incubated at overnight at 35° C. before use. The fungal isolates were incubated at least 7 days on Sabouraud dextrose agar slants at 35° C. before harvesting.
(§2) Isolates were tested in RPMI medium (Catalog No. SH30011.04; Lot No. AWA92121B; HyClone Labs, Logan, Utah) which was prepared according to CLSI guidelines. The pH of the medium was adjusted to 7.0 with 1 N NaOH. The medium was sterile filtered using a 0.2 μm PES filter and stored at 4° C. until used.
(§3) The MIC assay method employed automated liquid handlers to conduct serial dilutions and liquid transfers. Automated liquid handlers included the Multidrop 384 (Labsystems, Helsinki, Finland), Biomek 2000 and Biomek FX (Beckman Coulter, Fullerton Calif.). The wells in columns 2-12 in standard 96-well microdilution plates (Costar 3795) were filled with 150 μl of the correct diluent (50% DMSO for investigational compounds, 100% DMSO for comparator compounds). These would become the mother plates' from which ‘daughter’ or test plates would be prepared. Stocks were diluted to 40× the desired top concentration in the test plates in the indicated solvent, and 300 μL of the 40× stock was dispensed into the appropriate well in Column 1 of the mother plates. The Biomek 2000 was used to make serial serial 2-fold dilutions through Column 11 in the “mother plate”. The wells of Column 12 contained no drug and served as the organism growth control wells.
(§4) The daughter plates were loaded with 185 μL per well of RPMI described above using the Multidrop 384. The daughter plates were prepared using the Biomek FX which transferred 5 μL of drug solution from each well of a mother plate to the corresponding well of the daughter plate in a single step.
(§5) A standardized inoculum of each organism was prepared. For Candida, colonies were picked from the streak plate and a suspension was prepared in RPMI medium equal to a 0.5 McFarland standard, then diluted 1:100 in RPMI and transferred to compartments of sterile reservoirs divided by length (Beckman Coulter). For the Aspergillus isolates, previously prepared and quantitated suspensions were used to make dilutions in RPMI to reach 20× the final concentration. These dilutions were also transferred to compartments of sterile reservoirs divided by length (Beckman Coulter). The final concentration of the Aspergillus isolates was approximately 0.2-2.5×10^4 CFU/mL.
(§6) The Biomek 2000 was used to inoculate the plates. Daughter plates were placed on the Biomek 2000 work surface reversed so that inoculation took place from low to high drug concentration. The Biomek 2000 delivered 10 μL of standardized inoculum into each well. Thus, the wells of the daughter plates ultimately contained 185 μL of RPMI, 5 μL of drug solution, and 10 μL of inoculum. The final concentration of DMSO in the test well was 2.5% for the evaluated comparators and 1.25% for the investigational agents.
(§7) Plates were stacked 3 high, covered with a lid on the top plate, placed into plastic bags, and incubated at 35° C. for approximately 24-48 hr prior to reading. Plates were read when inoculum was confluent in growth wells. Plates were viewed from the bottom using a plate viewer. […] MICs were read where visible growth of the organism was inhibited. MECs were read where the growth shifted to a small, rounded, compact hyphal form as compared to the hyphal growth seen in the growth control well.

[2] = tested on: C. krusei ATCC 14243; experiment: microbe, parasite or virus in culture
Protocol: as §1, §2, §3, §4, §5, §6, §7

[3] = tested on: C. albicans ATCC 90028; experiment: microbe, parasite or virus in culture
Protocol: as §1, §2, §3, §4, §5, §6, §7

[4] = tested on: C. parapsilosis ATCC 22019; experiment: microbe, parasite or virus in culture
Protocol: as §1, §2, §3, §4, §5, §6, §7

[5] = tested on: A. flavus MX 5948; experiment: MEC assay (Example 31); details: RPMI pH 7.0, 35° C., 24-48 hr
Protocol: as §1, §2, §3, §4, §5, §6, §7

[6] = tested on: A. fumigatus MYA-3626; experiment: MEC assay (Example 31); details: RPMI pH 7.0, 35° C., 24-48 hr
Protocol: as §1, §2, §3, §4, §5, §6, §7

[7] = tested on: A. fumigatus ATCC 13073; experiment: MEC assay (Example 31); details: RPMI pH 7.0, 35° C., 24-48 hr
Protocol: as §1, §2, §3, §4, §5, §6, §7

[8] = tested on: A. fumigatus MYA-4609; experiment: MEC assay (Example 31); details: RPMI pH 7.0, 35° C., 24-48 hr
Protocol: as §1, §2, §3, §4, §5, §6, §7

[9] = tested on: A. fumigatus MX 5944; experiment: MEC assay (Example 31); details: RPMI pH 7.0, 35° C., 24-48 hr
Protocol: as §1, §2, §3, §4, §5, §6, §7

[10] = C. parapsilosis ATCC 22019, RPMI pH 7.0, 35° C., 24-48 hr

SMILES | MIC ([1]; ATCC 90030, pH 7) [µg/mL] | MIC ([2]; ATCC 14243, pH 7) [µg/mL] | MIC ([3]; ATCC 90028, pH 7) [µg/mL] | MIC ([4]; ATCC 22019, pH 7) [µg/mL] | MEC [5] | MEC [6] [µg/mL] | MEC [7] | MEC [8] [µg/mL] | MEC [9] [µg/mL] | MIC [4, 10] [µg/mL] | MIC ([1]; C. glabrata ATCC 90030, RPMI pH 7.0, 35° C., 24-48 hr) [µg/mL] | MIC ([2]; C. krusei ATCC 14243, RPMI pH 7.0, 35° C., 24-48 hr) [µg/mL] | MIC ([3]; C. albicans ATCC 90028, RPMI pH 7.0, 35° C., 24-48 hr) [µg/mL]
CC[C@H](C)C[C@H](C)CCCCCCCCC(=O)N[C@H]1C[C@@H](O)[C@@H](NCCN)NC(=O)[C@@H]2[C@@H](O)CCN2C(=O)[C@H]([C@H](O)CCNC(=O)CCNC(=O)[C@H](Cc2ccccc2)NC(=O)[C@H](CC(C)C)NC(=O)[C@H](CCSC)NC(=O)OCC(C)C)NC(=O)[C@H]([C@H](O)[C@@H](O)c2ccc(O)cc2)NC(=O)[C@@H]2C[C@@H](O)CN2C(=O)[C@H]([C@@H](C)O)NC1=O [Compound 5] | 4 (≈ 2.42 µM) | >4 | 2 (≈ 1.21 µM) | >4 |  |  |  |  |  |  |  |  | 
CC[C@H](C)C[C@H](C)CCCCCCCCC(=O)N[C@H]1C[C@@H](O)[C@@H](NCCNC(=O)CCNC(=O)[C@H](Cc2ccccc2)NC(=O)[C@H](CC(C)C)NC(=O)[C@H](CCSC)NC(=O)OCC(C)C)NC(=O)[C@@H]2[C@@H](O)CCN2C(=O)[C@H]([C@H](O)CCN)NC(=O)[C@H]([C@H](O)[C@@H](O)c2ccc(O)cc2)NC(=O)[C@@H]2C[C@@H](O)CN2C(=O)[C@H]([C@@H](C)O)NC1=O [Compound 6] | 4 (≈ 2.42 µM) | 8 (≈ 4.83 µM) | 2 (≈ 1.21 µM) | >16 |  |  |  |  |  |  |  |  | 
CC[C@H](C)C[C@H](C)CCCCCCCCC(=O)N[C@H]1C[C@@H](O)[C@@H](NCCN)NC(=O)[C@@H]2[C@@H](O)CCN2C(=O)[C@H]([C@H](O)CCNC(=O)CCNC(=O)[C@H](Cc2ccccc2)NC(=O)[C@H](CC(C)C)NC(=O)[C@H](CCSC)NC(C)=O)NC(=O)[C@H]([C@H](O)[C@@H](O)c2ccc(O)cc2)NC(=O)[C@@H]2C[C@@H](O)CN2C(=O)[C@H]([C@@H](C)O)NC1=O [Compound 7] | 8 (≈ 5.01 µM) | 16 (≈ 10 µM) | 2 (≈ 1.25 µM) | 32 (≈ 20 µM) | 1 µg/mL | 0.5 | 1 µg/mL | 0.5 | 1 |  |  |  | 
CC[C@H](C)C[C@H](C)CCCCCCCCC(=O)N[C@H]1C[C@@H](O)[C@@H](NCCNC(=O)CCNC(=O)[C@H](Cc2ccccc2)NC(=O)[C@H](CC(C)C)NC(=O)[C@H](CCSC)NC(C)=O)NC(=O)[C@@H]2[C@@H](O)CCN2C(=O)[C@H]([C@H](O)CCN)NC(=O)[C@H]([C@H](O)[C@@H](O)c2ccc(O)cc2)NC(=O)[C@@H]2C[C@@H](O)CN2C(=O)[C@H]([C@@H](C)O)NC1=O [Compound 8] | 4 (≈ 2.5 µM) | 8 (≈ 5.01 µM) | 2 (≈ 1.25 µM) | 32 (≈ 20 µM) | 1 µg/mL | 1 | 1 µg/mL | 1 | 1 |  |  |  | 
CC[C@H](C)C[C@H](C)CCCCCCCCC(=O)N[C@H]1C[C@@H](O)[C@@H](OCCNC(=O)CCNC(=O)[C@H](Cc2ccccc2)NC(=O)[C@H](CC(C)C)NC(=O)[C@H](CCSC)NC=O)NC(=O)[C@@H]2[C@@H](O)CCN2C(=O)[C@H]([C@H](O)CCN)NC(=O)[C@H]([C@H](O)[C@@H](O)c2ccc(O)cc2)NC(=O)[C@@H]2C[C@@H](O)CN2C(=O)[C@H]([C@@H](C)O)NC1=O [Compound 9] | 8 (≈ 5.05 µM) |  | 2 (≈ 1.26 µM) |  | 0.06 to 0.12 µg/mL | 0.12 | 0.06 to 0.12 µg/mL | 0.06 to 0.5 | 0.12 | >16 to 32 |  |  | 
CC[C@H](C)C[C@H](C)CCCCCCCCC(=O)N[C@H]1C[C@@H](O)[C@@H](NCCNC(=O)C(Cc2ccccc2)NC(=O)C(CC(C)C)NC(=O)C(CCSC)NC(=O)Nc2ccc(Cl)cc2)NC(=O)[C@@H]2[C@@H](O)CCN2C(=O)[C@H]([C@H](O)CCN)NC(=O)[C@H]([C@H](O)[C@@H](O)c2ccc(O)cc2)NC(=O)[C@@H]2C[C@@H](O)CN2C(=O)[C@H]([C@@H](C)O)NC1=O (stereo partly shown) [Compound 13a] |  |  |  |  |  |  |  |  |  | 32 (≈ 19.5 µM) | 8 (≈ 4.88 µM) | 16 (≈ 9.77 µM) | 2 (≈ 1.22 µM)

Continued, in another order:

MIC ([1]; ATCC 90030, pH 7) [µg/mL] | MIC ([2]; ATCC 14243, pH 7) [µg/mL] | MIC ([3]; ATCC 90028, pH 7) [µg/mL] | MIC ([4]; ATCC 22019, pH 7) [µg/mL] | SMILES | MEC [5] | MEC [6] [µg/mL] | MEC [7] | MEC [8] [µg/mL] | MEC [9] [µg/mL] | MIC [4, 10] [µg/mL] | MIC ([1]; C. glabrata ATCC 90030, RPMI pH 7.0, 35° C., 24-48 hr) [µg/mL] | MIC ([2]; C. krusei ATCC 14243, RPMI pH 7.0, 35° C., 24-48 hr) [µg/mL] | MIC ([3]; C. albicans ATCC 90028, RPMI pH 7.0, 35° C., 24-48 hr) [µg/mL]
8 (≈ 5.05 µM) | 16 (≈ 10.1 µM) | 2 (≈ 1.26 µM) | 32 (≈ 20.2 µM) | CC[C@H](C)C[C@H](C)CCCCCCCCC(=O)N[C@H]1C[C@@H](O)[C@@H](OCCN)NC(=O)[C@@H]2[C@@H](O)CCN2C(=O)[C@H]([C@H](O)CCNC(=O)CCNC(=O)[C@H](Cc2ccccc2)NC(=O)[C@H](CC(C)C)NC(=O)[C@H](CCSC)NC=O)NC(=O)[C@H]([C@H](O)[C@@H](O)c2ccc(O)cc2)NC(=O)[C@@H]2C[C@@H](O)CN2C(=O)[C@H]([C@@H](C)O)NC1=O [Compound 10] | 0.12 µg/mL | 0.12 | 0.25 µg/mL | 0.12 | 0.12 |  |  |  | 
4 to 8 | 8 to 16 | 1 to 2 | 8 to 16 | CC[C@H](C)C[C@H](C)CCCCCCCCC(=O)N[C@H]1C[C@@H](O)[C@@H](OCCNC(=O)[C@H](Cc2ccccc2)NC(=O)[C@H](CC(C)C)NC(=O)[C@H](CCSC)NC=O)NC(=O)[C@@H]2[C@@H](O)CCN2C(=O)[C@H]([C@H](O)CCN)NC(=O)[C@H]([C@H](O)[C@@H](O)c2ccc(O)cc2)NC(=O)[C@@H]2C[C@@H](O)CN2C(=O)[C@H]([C@@H](C)O)NC1=O [Compound 12] | ≦0.03-0.12 μg/mL | 0.06 to 0.25 | ≦0.03-0.12 μg/mL | 0.06 to 0.12 | 0.12 to 0.25 |  |  |  | 
32 (≈ 18.4 µM) | >32 | 2 (≈ 1.15 µM) | >32 | CC[C@H](C)C[C@H](C)CCCCCCCCC(=O)N[C@H]1C[C@@H](O)[C@@H](NCCN)NC(=O)[C@@H]2[C@@H](O)CCN2C(=O)[C@H]([C@H](O)CCNC(=O)CCC(=O)NCCOCCOCCNC(=O)[C@H](Cc2ccccc2)NC(=O)[C@H](CC(C)C)NC(=O)[C@H](CCSC)NC=O)NC(=O)[C@H]([C@H](O)[C@@H](O)c2ccc(O)cc2)NC(=O)[C@@H]2C[C@@H](O)CN2C(=O)[C@H]([C@@H](C)O)NC1=O [Compound 16] |  |  |  |  |  |  |  |  | 
0.5 (≈ 0.4 µM) | 2 (≈ 1.6 µM) | 0.12 (≈ 0.096 µM) | 1 (≈ 0.8 µM) | CC[C@H](C)C[C@H](C)CCCCCCCCC(=O)N[C@H]1C[C@@H](O)[C@@H](NCCN)NC(=O)[C@@H]2[C@@H](O)CCN2C(=O)[C@H]([C@H](O)CCNC(=O)[C@H](CCCCN)NC=O)NC(=O)[C@H]([C@H](O)[C@@H](O)c2ccc(O)cc2)NC(=O)[C@@H]2C[C@@H](O)CN2C(=O)[C@H]([C@@H](C)O)NC1=O [Compound 25] |  |  |  |  |  |  |  |  | 
